System: TNF-α
Experiment: Cytokine ELISA, LPS-stimulated peritoneal macrophages (TNF-α)
Type: cell-based, mouse
Conditions: LPS-stimulated macrophages, mouse model of type 2 diabetes
Description: This was exemplified in the current study by the ability of SFN-CYS to inhibit lipopolysaccharide (LPS)-induced peritoneal macrophages and bone marrow-derived macrophages to produce tumor necrosis factor-α (TNF-α) and interlukin-6 (IL-6). TNF-α and IL-6 are two of the major inflammatory mediators that contribute to the pathogenesis of low-grade inflammation; a phenomenon which is commonly associated with the diabetic state. […] Pre-treatment with SFN-Cys inhibited the expression of LPS-induced TNF-α and IL-6 protein at a therapeutic dose of 1.5 μM (FIGS. 1A and 1B).
Thioglycollate-elicited mouse peritoneal macrophages were prepared from C57BL (8-10 weeks old) and cultured in RPMI 1640 with 10% (v/v) FCS Bone marrow-derived macrophages were generated in RPMI medium containing M-CSF (10 ng/mL) according to previously published procedure. For cytokine ELISA assay, cells were seeded at 5×10^5 in 12-well plates, whereas for mRNA expression, the cells were seeded at […]. LPS and used at a dose of 100 ng/mL. Similarly. SFN-Cys was used at a concentration of 1.5 umol/L.
For cytokine ELISA, supernatants from cultured macrophages were collected in response to treatment with SFN and SFN-Cys for 6 h. The total TNF-α and TL-6 were measured by enzyme-linked immunosorbent assay (ELISA) using kits (R&D system, USA) according to the manufacturer's protocols.

C[S+]([O-])CCCCN=C=S (stereo not shown) [SFN, Sulforaphane]
anti-inflammatory activity (overall, SFN-Cys compared with SFN): exhibited anti-inflammatory and antioxidant activities
